Here are results for 50 molecules from patent US20240148744A1 (Celgene Corporation, priority 2021, published 2024).

Structures are written as SMILES.

The test system of this experiment is Onchocerca gutturosa adult male worms. Kind of experiment: Onchocerca gutturosa in vitro screening model: adult worm motility score and MTT/formazan viability. The class given is cell-based. Particulars: read-out: O. gutt Activity class.
With `O=S(=O)(Nc1ccc2cccnc2c1)c1ccccn1` [Compound 262, N-(quinolin-7-yl)pyridine-2-sulfonamide], the IC50 was 500 to 5000 nM.

As for `O=S(=O)(Nc1cc(C2CCCCC2)cc2cccnc12)c1ccccn1` [Compound 131, N-(6-cyclo-hexylquinolin-8-yl)pyridine-2-sulfonamide], the IC50 was in the range of 500 to 5000 nM.

`O=S(=O)(Nc1cccc2cccnc12)c1ccc(-c2cnco2)nc1` [Compound 172, 6-(oxazol-5-yl)-N-(quinolin-8-yl)pyridine-3-sulfonamide]: the IC50 is 500 to 5000 nM.

With `Cn1ccnc1S(=O)(=O)Nc1ccc(F)c2cccnc12` [Compound 133, N-(5-fluoro-quinolin-8-yl)-1-methyl-1H-imidazole-2-sulfonamide], the IC50 is less than 200 nM.

`O=S(=O)(Nc1ccnc2cccnc12)c1cc(C2CC2)ccn1` [Compound 195]: the IC50 was less than 200 nM.

As for `Cc1nc(C(F)(F)F)ccc1S(=O)(=O)Nc1cccc2cccnc12` [Compound 173, 2-methyl-N-(quinolin-8-yl)-6-(trifluoromethyl) pyridine-3-sulfonamide], the IC50 is 500 to 5000 nM.

As for `COc1cccc(S(=O)(=O)Nc2cccc3cccnc23)n1` [Compound 224, 6-methoxy-N-(quinolin-8-yl)pyridine-2-sulfonamide], the IC50 is 200 to 500 nM.

For the molecule `N#Cc1cccc(S(=O)(=O)Nc2cccc3cccnc23)n1` [Compound 162, 6-cyano-N-(quinolin-8-yl)pyridine-2-sulfonamide], the IC50 lay within 500 to 5000 nM.

As for `O=S(=O)(Nc1cc(-c2ccccc2)cc2cccnc12)c1ccccn1` [Compound 97, N-(6-phenyl-quinolin-8-yl)pyridine-2-sulfonamide], the IC50 lay within 500 to 5000 nM.

Turning to `CN(C)c1cccnc1S(=O)(=O)Nc1cccc2c1CN(C1CC1)C2` [Compound 47, N-(2-cyclo-propyliso-indolin-4-yl)-3-(dimethyl-amino)pyr-idine-2-sulfonamide], the IC50 was 500 to 5000 nM.

As to `O=S(=O)(Nc1cccc2cccnc12)c1ccc(F)cc1F` [Compound 275, 2,4-difluoro-N-(quinolin-8-yl)benzene-sulfonamide], the IC50 was in the range of 200 to 500 nM.

On to `CC(C)n1ccnc1S(=O)(=O)Nc1cccc2c1CN(C1CC1)C2` [Compound 33, N-(2-cyclo-propyliso-indolin-4-yl)-1-isopropyl-1H-imidazole-2-sulfonamide], for which the IC50 lay within 200 to 500 nM.

Consider `Cc1ccc(S(=O)(=O)Nc2cccc3cccnc23)cc1C` [Compound 273, 3,4-dimethyl-N-(quinolin-8-yl)benzenesulfon-amide], for which the IC50 is less than 200 nM.

`Cc1cccnc1S(=O)(=O)Nc1cccc2ncc(N3CCC3)cc12` [Compound 20, N-(3-(azet-idin-1-yl)-quinolin-5-yl)-3-meth-ylpyridine-2-sulfonamide]: the IC50 lay in the range of 200 to 500 nM.

Regarding `O=S(=O)(Nc1cccc2cccnc12)c1cccc(-c2ccccc2)n1` [Compound 161, 6-phenyl-N-(quinolin-8-yl)pyridine-2-sulfonamide], the IC50 is 500 to 5000 nM.

`O=S(=O)(Nc1ccc(N2CCOCC2)c2cccnc12)c1ccco1` [Compound 61, N-(5-morph-olinoquin-olin-8-yl)-furan-2-sulfonamide]: the IC50 lay in the range of 500 to 5000 nM.

In the case of `Cc1nccnc1S(=O)(=O)Nc1c(Cl)ccc2cccnc12` [Compound 70, N-(7-chloro-quinolin-8-yl)-3-methyl-pyrazine-2-sulfonamide], the IC50 lay in the range of 500 to 5000 nM.

`O=S(=O)(Nc1cc(F)cc2cccnc12)c1ccccn1` [Compound 135, N-(6-fluoro-quinolin-8-yl)-pyridine-2-sulfonamide]: the IC50 lay within 500 to 5000 nM.

In the case of `NC(=O)c1cccc(S(=O)(=O)Nc2ccc(N3CCOCC3)c3cccnc23)c1` [Compound 92, 3-(N-(5-morpholino-quin-olin-8-yl)sulfamoyl)-benzamide], the IC50 fell in the range of 500 to 5000 nM.

For the molecule `O=S(=O)(Nc1c(Cl)ccc2cccnc12)c1ncccc1C1CC1` [Compound 69, N-(7-chloro-quinolin-8-yl)-3-cyclo-propylpyr-idine-2-sulfonamide], the IC50 was less than 200 nM.

Consider `COc1ccc(S(=O)(=O)Nc2cccc3cccnc23)nc1` [Compound 235, 5-methoxy-N-(quinolin-8-yl)pyridine-2-sulfonamide], for which the IC50 is less than 200 nM.

In the case of `COc1cc(OC)cc(S(=O)(=O)Nc2cc(F)cc3cccnc23)c1` [Compound 128, N-(6-fluoro-quinolin-8-yl)-3,5-dimethoxy-benzenesulfon-amide], the IC50 was less than 200 nM.

Take `CN(C)c1cnc(S(=O)(=O)Nc2c(Cl)ccc3cccnc23)cn1` [Compound 49, N-(7-chloro-quinolin-8-yl)-5-(dimeth-ylamino)pyr-azine-2-sulfonamide]: the IC50 lay in the range of 500 to 5000 nM.

As for `CCn1cccc1S(=O)(=O)Nc1cccc2cccnc12` [Compound 227, 1-ethyl-N-(quinolin-8-yl)-1H-pyrrole-2-sulfonamide], the IC50 was less than 200 nM.

For the molecule `Cc1nc(S(=O)(=O)Nc2cccc3cccnc23)c(C#N)c(C)c1Cl` [Compound 175, 5-chloro-3-cyano-4,6-dimethyl-N-(quinolin-8-yl)pyridine-2-sulfonamide], the IC50 fell in the range of 200 to 500 nM.

Turning to `COc1ccc2cccnc2c1NS(=O)(=O)c1ncccc1C1CC1` [Compound 141, 3-cyclopropyl-N-(7-methoxy-quinolin-8-yl)-pyridine-2-sulfonamide], the IC50 is less than 200 nM.

Turning to `Cc1cc(C)cc(S(=O)(=O)Nc2cccc3cccnc23)c1` [Compound 254, 3,5-dimethyl-N-(quinolin-8-yl)benzene-sulfonamide], the IC50 was less than 200 nM.

As to `Cc1cc(C)cc(S(=O)(=O)Nc2cc(F)cc3cccnc23)c1` [Compound 91, N-(6-fluoro-quinolin-8-yl)-3,5-dimethyl-benzene-sulfonamide], the IC50 is less than 200 nM.

Consider `Cc1nccnc1S(=O)(=O)Nc1cccc2cccnc12` [Compound 210, 3-methyl-N-(quinolin-8-yl)pyrazine-2-sulfonamide], for which the IC50 was less than 200 nM.

With `O=S(=O)(Nc1cccc2cccnc12)c1cccnc1` [Compound 277, N-(quinolin-8-yl)pyridine-3-sulfonamide], the IC50 fell in the range of 500 to 5000 nM.

For the molecule `Cc1ccc(S(=O)(=O)Nc2cccc3cccnc23)cc1` [Compound 284, 4-methyl-N-(quinolin-8-yl)benzene-sulfonamide], the IC50 was less than 200 nM.

As to `CN(c1cccc2cccnc12)S(=O)(=O)c1ccccn1` [Compound 256, N-methyl-N-(quinolin-8-yl)pyridine-2-sulfonamide], the IC50 was in the range of 500 to 5000 nM.

For the molecule `Cc1cccnc1S(=O)(=O)Nc1cccc2c1N(C1CC1)CCC2` [Compound 38, N-(1-cyclo-propyl-1,2,3,4-tetra-hydroquin-olin-8-yl)-3-methylpyr-idine-2-sulfonamide], the IC50 lay within 500 to 5000 nM.

With `O=S(=O)(Nc1ccc(N2CCOCC2)c2cccnc12)c1cn[nH]c1` [Compound 62, N-(5-morph-olinoquin-olin-8-yl)-1H-pyrazole-4-sulfonamide], the IC50 was in the range of 500 to 5000 nM.

Take `O=S(=O)(Nc1c(Cl)cc(N2CCOCC2)c2cccnc12)c1ncccc1C1CC1` [Compound 139, N-(7-chloro-5-morpholino-quinolin-8-yl)-3-cyclopropyl-pyridine-2-sulfonamide]: the IC50 is less than 200 nM.

On to `O=S(=O)(Nc1cc(O)cc2cccnc12)c1ccccn1` [Compound 94, N-(6-hydroxy-quinolin-8-yl)pyridine-2-sulfonamide], for which the IC50 lay within 500 to 5000 nM.

As to `O=S(=O)(Nc1ccc(F)c2cccnc12)c1cn[nH]c1` [Compound 63, N-(5-fluoro-quinolin-8-yl)-1H-pyrazole-4-sulfonamide], the IC50 fell in the range of 500 to 5000 nM.

Regarding `Cn1cc(S(=O)(=O)Nc2ccc(F)c3cccnc23)cn1` [Compound 59, N-(5-fluoro-quinolin-8-yl)-1-meth-yl-1H-pyr-azole-4-sulfonamide], the IC50 lay in the range of 500 to 5000 nM.

Turning to `O=S(=O)(Nc1cccc2cccnc12)c1ccco1` [Compound 281, N-(quinolin-8-yl)furan-2-sulfonamide], the IC50 is 500 to 5000 nM.

Take `Cc1ccc(NS(=O)(=O)c2ccco2)c2ncccc12` [Compound 65, N-(5-methyl-quinolin-8-yl)furan-2-sulfonamide]: the IC50 is 500 to 5000 nM.

Consider `COc1cncc(S(=O)(=O)Nc2c(Cl)ccc3cccnc23)n1` [Compound 81, N-(7-chloro-quinolin-8-yl)-6-meth-oxypyrazine-2-sulfonamide], for which the IC50 lay in the range of 500 to 5000 nM.

For `Cc1ccc(S(=O)(=O)Nc2cc(C)cc3cccnc23)cc1` [Compound 93, 4-methyl-N-(6-methyl-quinolin-8-yl)benzene-sulfonamide], the IC50 lay in the range of 200 to 500 nM.

Take `COc1nccnc1S(=O)(=O)Nc1c(Cl)ccc2cccnc12` [Compound 101, N-(7-chloro-quinolin-8-yl)-3-methoxypyr-azine-2-sulfon-amide]: the IC50 fell in the range of 500 to 5000 nM.

On to `O=S(=O)(Nc1cccc2cccnc12)c1cccc(F)c1` [Compound 283, 3-fluoro-N-(quinolin-8-yl)benzene-sulfonamide], for which the IC50 fell in the range of 200 to 500 nM.

Regarding `O=S(=O)(Nc1cccc2cccnc12)c1nccc2ncccc12` [Compound 229, N-(quinolin-8-yl)-1,6-naphthyridine-5-sulfonamide], the IC50 is less than 200 nM.

For `Cc1cccnc1S(=O)(=O)Nc1cccc2c1CN(C1CC1)C2` [Compound 41, N-(2-cyclo-propyliso-indolin-4-yl)-3-methylpyr-idine-2-sulfonamide], the IC50 is 500 to 5000 nM.

On to `O=S(=O)(Nc1cccc2cccnc12)c1ccc(-c2ccccc2)cn1` [Compound 244, 5-phenyl-N-(quinolin-8-yl)pyridine-2-sulfonamide], for which the IC50 was in the range of 500 to 5000 nM.

On to `O=S(=O)(Nc1cccc2cccnc12)c1ccccc1C(F)(F)F` [Compound 274, N-(quinolin-8-yl)-2-(trifluoromethyl) benzene-sulfonamide], for which the IC50 is less than 200 nM.

Consider `CCn1ccnc1S(=O)(=O)Nc1ccc(OC)c2cccnc12` [Compound 57, 1-ethyl-N-(5-methoxyquin-olin-8-yl)-1H-imidazole-2-sulfonamide], for which the IC50 fell in the range of 500 to 5000 nM.

Take `O=S(=O)(Nc1cccc2cccnc12)c1ccc(F)cn1` [Compound 247, 5-fluoro-N-(quinolin-8-yl)pyridine-2-sulfonamide]: the IC50 was less than 200 nM.
